Columns and labels:
splenic T cells = experiment: Mitogenesis of spleen T cells (ConA, 3H-thymidine) from LP-BM5-infected mice given SP aerosol; assay type: in vivo, C57BL6 mice
Description: (§1) C57BL6 mice, average weight of 25-30 grams, were infected with the LP-BM5 murine leukemia retrovirus to simulate the human AIDS virus. […] The mice were divided into two groups; LP-BM5 virus only and LP-BM5 virus +substance P aerosol therapy at 1 μM concentration. The mice were killed at 4 and 8 weeks post-inoculation.
The proliferation of splenic B and T cells induced by mitogens was determined by incorporation of radioactive thymidine. Splenocytes in 0.1 ml of cell culture medium (1×10^7 cells/ml) were cultured in 96-well flat-bottom cultured plates with ConA and lipopolysaccharide, 5 micrograms/ml). […] After 4 hours for radioactive thymidine uptake, the cells were harvested by a cell sample harvester. Radioactivity was determined by a liquid scintillation counter (Tri-Carb, 2200CA). The T and B cell mitogenesis values were recorded as counts per min in 1×10^7 cells/ml.

[1] = system: lymphocyte subpopulations; experiment: Flow cytometric analyses (FACS) of immune organs, JP-8 exposed mice; assay type: in vivo, C57B16 mice
Description: At 24 hours after the last exposure, the animals were sacrificed and the effects of exposure on the immune system examined. Immune organs (spleen, thymus, blood, lymph nodes and bone marrow) were recovered and analyzed for effects on organ weight, total cell numbers, immune cell populations (by differentials), and lymphocyte subpopulations (by flow cytometry). Assays were also performed to examine the effects of exposure on immune function. […] Similar effects on immune cell subpopulations were also observed in lymph nodes. In the thymus it appeared that the immature CD4^+ CD8^+ cells were differentially lost due to exposure. […] However, these effects are prevented or ameliorated by treatment of the animals with Substance P.
Flow cytometric analyses (FACS): One- and two-color FACS analyses are performed using a Becton-Dickinson FACStar Plus flow cytometer. Cells are stained with the indicated monoclonal antibodies according to standard procedures (Harris et al., id). Cells alone and cells reacted with conjugated isotype control, irrelevant mAbs are used as controls. Data is presented as the percentage of cells staining positive for each individual mAb.

[2] = system: LP-BM5 murine leukemia retrovirus; experiment: Mouse AIDS model, spleen changes and total cell numbers; assay type: in vivo, C57BL6 mice
Description: as §1

[3] = system: melanoma B16 cancer cells; experiment: B16 melanoma massive challenge, survival; assay type: in vivo, mice; details: tumor-challenged mammals, aerosol therapy
From the text: The mice were infected with 1×10^5 […] melanoma B16 cancer cells by tail vein injection.

[4] = LP-BM5 virus + SP aerosol 1 μM, 4 weeks after infection, mean (SEM)
[5] = JP-8 dose 0 + SP or antagonist aerosol
[6] = JP-8 dose 1000 + SP or antagonist aerosol
[7] = JP-8 dose 1000 + nSP (1 nanomolar substance P)

Substance: Substance P [SP]
- Spleen T Cell Mitogenesis, 24 Hours in Culture (splenic T cells; LP-BM5 virus + SP aerosol 1 μM 3 days/week, 4 weeks after infection, mean (SEM)): 2963 (56) counts per min
- Spleen T Cell Mitogenesis, 48 Hours in Culture (splenic T cells; [4]): 2769 (23) counts per min
- Spleen T Cell Mitogenesis, 72 hours in culture (splenic T cells; [4]): 4362 (69) counts per min
- Spleen T Cell Mitogenesis, 72 hours in culture (splenic T cells; LP-BM5 virus + SP aerosol 1 μM, 8 weeks post-infection): 3127 (77) counts per min
- BM CD3, cells staining positive [1, 5]: 12%
- BM CD4, cells staining positive [1, 5]: 11%
- BM CD8, cells staining positive [1, 5]: 1%
- BM CD45, cells staining positive [1, 5]: 48%
- Spleen CD3, cells staining positive [1, 5]: 42%
- Spleen CD4, cells staining positive [1, 5]: 26%
- Spleen CD8, cells staining positive [1, 5]: 11%
- Spleen CD45, cells staining positive [1, 5]: 23%
- Spleen MAC1, cells staining positive [1, 5]: 1%
- Thymus CD3, cells staining positive [1, 5]: 10%
- Thymus DN, cells staining positive [1, 5]: 7%
- Thymus DP, cells staining positive [1, 5]: 84%
- Thymus SP4, cells staining positive [1, 5]: 6%
- Thymus SP8, cells staining positive [1, 5]: 2%
- BM CD3, cells staining positive ([1]; JP-8 dose 250 + SP aerosol): 13%
- BM CD4, cells staining positive ([1]; JP-8 dose 250 + SP aerosol): 10%
- BM CD8, cells staining positive ([1]; JP-8 dose 250 + SP aerosol): 3%
- BM CD45, cells staining positive ([1]; JP-8 dose 250 + SP aerosol): 48%
- BM MAC1, cells staining positive ([1]; JP-8 dose 250 + SP aerosol): 10%
- LN CD3, cells staining positive ([1]; JP-8 dose 250 + SP aerosol): 85%
- LN CD4, cells staining positive ([1]; JP-8 dose 250 + SP aerosol): 48%
- LN CD8, cells staining positive ([1]; JP-8 dose 250 + SP aerosol): 12%
- LN CD45, cells staining positive ([1]; JP-8 dose 250 + SP aerosol): 13%
- LN MAC1, cells staining positive ([1]; JP-8 dose 250 + SP aerosol): 1%
- PBL CD3, cells staining positive ([1]; JP-8 dose 250 + SP aerosol): 59%
- PBL CD4, cells staining positive ([1]; JP-8 dose 250 + SP aerosol): 15%
- PBL CD8, cells staining positive ([1]; JP-8 dose 250 + SP aerosol): 6%
- PBL CD45, cells staining positive ([1]; JP-8 dose 250 + SP aerosol): 16%
- PBL MAC1, cells staining positive ([1]; JP-8 dose 250 + SP aerosol): 1%
- Spleen CD3, cells staining positive ([1]; JP-8 dose 250 + SP aerosol): 62%
- Spleen CD4, cells staining positive ([1]; JP-8 dose 250 + SP aerosol): 27%
- Spleen CD8, cells staining positive ([1]; JP-8 dose 250 + SP aerosol): 3%
- Spleen CD45, cells staining positive ([1]; JP-8 dose 250 + SP aerosol): 21%
- Spleen MAC1, cells staining positive ([1]; JP-8 dose 250 + SP aerosol): 1%
- Thymus CD3, cells staining positive ([1]; JP-8 dose 250 + SP aerosol): 24%
- Thymus DN, cells staining positive ([1]; JP-8 dose 250 + SP aerosol): 5%
- Thymus DP, cells staining positive ([1]; JP-8 dose 250 + SP aerosol): 68%
- Thymus SP4, cells staining positive ([1]; JP-8 dose 250 + SP aerosol): 22%
- Thymus SP8, cells staining positive ([1]; JP-8 dose 250 + SP aerosol): 5%
- BM CD3, cells staining positive [1, 6]: 14%
- BM CD4, cells staining positive [1, 6]: 9%
- BM CD8, cells staining positive [1, 6]: 2%
- BM CD45, cells staining positive [1, 6]: 31%
- BM MAC1, cells staining positive [1, 6]: 26%
- LN CD3, cells staining positive [1, 6]: 86%
- LN CD4, cells staining positive [1, 6]: 29%
- LN CD8, cells staining positive [1, 6]: 11%
- LN CD45, cells staining positive [1, 6]: 22%
- LN MAC1, cells staining positive [1, 6]: 0%
- PBL CD3, cells staining positive [1, 6]: 61%
- PBL CD4, cells staining positive [1, 6]: 23%
- PBL CD8, cells staining positive [1, 6]: 10%
- PBL CD45, cells staining positive [1, 6]: 22%
- PBL MAC1, cells staining positive [1, 6]: 3%
- Spleen CD3, cells staining positive [1, 6]: 34%
- Spleen CD4, cells staining positive [1, 6]: 18%
- Spleen CD8, cells staining positive [1, 6]: 10%
- Spleen CD45, cells staining positive [1, 6]: 20%
- Spleen MAC1, cells staining positive [1, 6]: 5%
- Thymus CD3, cells staining positive [1, 6]: 20%
- Thymus DN, cells staining positive [1, 6]: 10%
- Thymus DP, cells staining positive [1, 6]: 65%
- Thymus SP4, cells staining positive [1, 6]: 16%
- Thymus SP8, cells staining positive [1, 6]: 6%
- BM CD3, cells staining positive [1, 7]: 13%
- BM CD4, cells staining positive [1, 7]: 10%
- BM CD8, cells staining positive [1, 7]: 3%
- BM CD45, cells staining positive [1, 7]: 43%
- BM MAC1, cells staining positive [1, 7]: 16%
- LN CD3, cells staining positive [1, 7]: 95%
- LN CD4, cells staining positive [1, 7]: 42%
- LN CD8, cells staining positive [1, 7]: 25%
- LN CD45, cells staining positive [1, 7]: 23%
- LN MAC1, cells staining positive [1, 7]: 0%
- PBL CD3, cells staining positive [1, 7]: 78%
- PBL CD4, cells staining positive [1, 7]: 25%
- PBL CD8, cells staining positive [1, 7]: 8%
- PBL CD45, cells staining positive [1, 7]: 29%
- PBL MAC1, cells staining positive [1, 7]: 2%
- Spleen CD3, cells staining positive [1, 7]: 60%
- Spleen CD4, cells staining positive [1, 7]: 15%
- Spleen CD8, cells staining positive [1, 7]: 5%
- Spleen CD45, cells staining positive [1, 7]: 41%
- Spleen MAC1, cells staining positive [1, 7]: 1%
- Thymus CD3, cells staining positive [1, 7]: 25%
- Thymus DN, cells staining positive [1, 7]: 7%
- Thymus DP, cells staining positive [1, 7]: 69%
- Thymus SP4, cells staining positive [1, 7]: 16%
- Thymus SP8, cells staining positive [1, 7]: 7%
- BM CD3, cells staining positive ([1]; JP-8 dose 2500 + SP aerosol): 6%
- BM CD4, cells staining positive ([1]; JP-8 dose 2500 + SP aerosol): 3%
- BM CD8, cells staining positive ([1]; JP-8 dose 2500 + SP aerosol): 6%
- BM CD45, cells staining positive ([1]; JP-8 dose 2500 + SP aerosol): 24%
- BM MAC1, cells staining positive ([1]; JP-8 dose 2500 + SP aerosol): 34%
- Spleen CD3, cells staining positive ([1]; JP-8 dose 2500 + SP aerosol): 38%
- Spleen CD4, cells staining positive ([1]; JP-8 dose 2500 + SP aerosol): 26%
- Spleen CD8, cells staining positive ([1]; JP-8 dose 2500 + SP aerosol): 14%
- Spleen CD45, cells staining positive ([1]; JP-8 dose 2500 + SP aerosol): 31%
- Spleen MAC1, cells staining positive ([1]; JP-8 dose 2500 + SP aerosol): 3%
- Thymus CD3, cells staining positive ([1]; JP-8 dose 2500 + SP aerosol): 16%
- Thymus DN, cells staining positive ([1]; JP-8 dose 2500 + SP aerosol): 19%
- Thymus DP, cells staining positive ([1]; JP-8 dose 2500 + SP aerosol): 64%
- Thymus SP4, cells staining positive ([1]; JP-8 dose 2500 + SP aerosol): 15%
- Thymus SP8, cells staining positive ([1]; JP-8 dose 2500 + SP aerosol): 5%
- changes in the mouse spleens ([2]; LP-BM5 mouse model, SP aerosol therapy): caused significant changes in the mouse spleens
- total cell numbers (spleen) versus LP-BM5 group ([2]; SP+Virus Group, 4 weeks after infection): not accompanied by an increase in total cell numbers
- survival time [3]: enhance survival time

— patent US5998376A, “Substance P treatment for immunostimulation” (priority 1998, dated 1999)
